{"source": "patent US20230077199A1", "about": "“PALMITOYL TETRAPEPTIDE-20 CONJUGATED NANOSILVER PARTICLE AND USE THEREOF” (priority 2021, published 2023)", "system": "B16F10 cells", "assay": "Measurement of melanin production", "assay_type": "cell-based, murine", "conditions": "B16F10, 200 nM, single treatment", "experimental": "B16F10 are seeded in 24-well plates at the density of 8×10^4 cells/well and incubated for 24 hours at 37° C. with 5% CO2 atmosphere. After removing the used cell medium, the cells are treated with fresh cell culture medium (control group), 200 nM α-MSH (α-MSH group), combination of 200 nM α-MSH and various concentrations of palmitoyl tetrapeptide-20 conjugated nanosilver particle (α-MSH+sample group), and various concentrations of palmitoyl tetrapeptide-20 conjugated nanosilver particle (sample group), for 24 hours. After treatment, the treated solution in the well is removed with further incubation with fresh cell culture medium for 24 hours.\nThe cells are washed twice with PBS. The cells are transferred into a 1.5 mL microtube and centrifuged at 10,000 rpm for 5 minutes to obtain cell pellets. Add 100 μL of solution (1 N NaOH containing 10% DMSO) to the pellet for 60 minutes at 80° C. to dissolve intracellular melanin. Extract 80 μL of dissolved melanin and place in 96-well plates, and melanin contents of control group and treatment group are determined by measuring the absorbance at 405 nm. The assay is repeated for three independent experiments. The equation for calculating melanin content is described as following: Total melanin content (%)=(A405 nm treatment group/A405 nm control group)×100%."}
{"substance": "α-melanocyte stimulating hormone [α-MSH]", "values": [{"measurement": "induction of melanin synthesis", "result": "effectively induce melanin synthesis"}]}
